The values that follow come from patent publication US9994551B2, “Pyridazine derivatives as RORc modulators” (Genentech, Inc., priority 2015, dated 2018).

The target of this assay is T1, RORc ligand binding domain (Homo sapiens, UniProt P51449).
T1 construct: host or cells: E. coli
T1 sequence (P51449 269-508 limits assumed): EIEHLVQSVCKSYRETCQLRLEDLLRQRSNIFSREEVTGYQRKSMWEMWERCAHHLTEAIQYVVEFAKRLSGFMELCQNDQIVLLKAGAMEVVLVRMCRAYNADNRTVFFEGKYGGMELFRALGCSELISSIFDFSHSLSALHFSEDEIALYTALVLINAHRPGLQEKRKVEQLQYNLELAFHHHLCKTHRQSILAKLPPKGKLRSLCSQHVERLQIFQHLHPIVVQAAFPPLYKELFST
Kind of assay: In vitro RORc ligand binding assay (25-[3H]hydroxycholesterol displacement, filter binding).
Take `CC1(C)[C@H]2CC[C@]1([C@@H]1CN(C(=O)c3cnco3)CCO1)c1nnc(-c3c(F)cccc3F)cc12` [Compound 90, ((R)-2-((5R,8R)-3-(2,6-difluorophenyl)-9,9-dimethyl-5,6,7,8-tetrahydro-5,8-methanocinnolin-8-yl)morpholino)(oxazol-5-yl)methanone]: the half-maximal inhibitory concentration (IC50) – broadly, the concentration at which inhibition is half-maximal – was 74.5 nM.
On to `CC1(C)[C@H]2CC[C@]1([C@@H]1CN(S(C)(=O)=O)CCO1)c1nnc(-c3c(F)cccc3F)cc12` [Compound 65, (R)-2-((5R,8R)-3-(2,6-difluorophenyl)-9,9-dimethyl-5,6,7,8-tetrahydro-5,8-methanocinnolin-8-yl)-4-(methylsulfonyl)morpholine], for which the IC50 worked out at 224 nM.
To `CC(C)(O)CNC(=O)CO[C@@]12CC[C@@H](c3cc(-c4c(F)cccc4F)nnc31)C2(C)C` [Compound 48, 2-(((5S,8R)-3-(2,6-difluorophenyl)-9,9-dimethyl-5,6,7,8-tetrahydro-5,8-methanocinnolin-8-yl)oxy)-N-(2-hydroxy-2-methylpropyl)acetamide] belongs 95.2 nM; to `CC(=O)N1CCC[C@H]([C@@]23CC[C@@H](c4cc(-c5c(F)cccc5F)nnc42)C3(C)C)C1` [Compound 98, 1-((R)-3-((5R,8R)-3-(2,6-difluorophenyl)-9,9-dimethyl-5,6,7,8-tetrahydro-5,8-methanocinnolin-8-yl)piperidin-1-yl)ethanone], 139 nM.
For `CC1(C)[C@H]2CC[C@]1(Oc1ccc(=O)[nH]c1)c1nnc(-c3c(F)cccc3F)cc12` [Compound 33, 5-(((5S,8R)-3-(2,6-difluorophenyl)-9,9-dimethyl-5,6,7,8-tetrahydro-5,8-methanocinnolin-8-yl)oxy)pyridin-2(1H)-one], the IC50 stood at 120 nM.
Consider `CC[C@@H](O[C@@]12CC[C@@H](c3cc(-c4c(F)cccc4F)nnc31)C2(C)C)C(=O)N(C)C` [Compound 36, (R)-2-(((5S,8R)-3-(2,6-difluorophenyl)-9,9-dimethyl-5,6,7,8-tetrahydro-5,8-methanocinnolin-8-yl)oxy)-N,N-dimethylbutanamide], for which the concentration for half-maximal inhibition (IC50) was 54.3 nM. This IC50 lies about 2.2-fold lower than the previous one.
Regarding `CC1(C)[C@H]2CC[C@]1([C@H]1CCCN(c3ccc(Cl)nn3)C1)c1nnc(-c3c(F)cccc3F)cc12` [Compound 170, 1-[1-(6-chloropyridazin-3-yl)-3-piperidyl]-5-(2,6-difluorophenyl)-11,11-dimethyl-3,4-diazatricyclo[6.2.1.02,7]undeca-2,4,6-triene], the IC50 is 18 nM. Compared with the last molecule, the IC50 is about 3-fold lower.
With `CC[C@@H](O[C@@]12CC[C@@H](c3cc(-c4c(F)cccc4F)nnc31)C2(C)C)C(=O)NCC(=O)N(C)C` [Compound 104, (R)-2-(((5S,8R)-3-(2,6-difluorophenyl)-9,9-dimethyl-5,6,7,8-tetrahydro-5,8-methanocinnolin-8-yl)oxy)-N-(2-(dimethylamino)-2-oxoethyl)butanamide], the IC50 was 82.9 nM.
In turn, `COC(=O)N1CCC[C@H]([C@@]23CC[C@@H](c4cc(-c5c(F)cccc5F)nnc42)C3(C)C)C1` [Compound 99, (R)-methyl 3-((5R,8R)-3-(2,6-difluorophenyl)-9,9-dimethyl-5,6,7,8-tetrahydro-5,8-methanocinnolin-8-yl)piperidine-1-carboxylate] had an IC50 of 6.9 nM.
On to `CN1CCO[C@@H]([C@@]23CC[C@@H](c4cc(-c5c(F)cccc5F)nnc42)C3(C)C)C1` [Compound 71, (S)-2-((5R,8R)-3-(2,6-difluorophenyl)-9,9-dimethyl-5,6,7,8-tetrahydro-5,8-thanocinnolin-8-yl)-4-methylmorpholine], for which the IC50 worked out at 375 nM. This IC50 lies about 54-fold higher than the previous one.
In turn, `CC[C@@H](O[C@@]12CC[C@@H](c3cc(-c4c(F)cccc4F)nnc31)C2(C)C)C(=O)NCC(C)(C)O` [Compound 52, (R)-2-(((5S,8R)-3-(2,6-difluorophenyl)-9,9-dimethyl-5,6,7,8-tetrahydro-5,8-methanocinnolin-8-yl)oxy)-N-(2-hydroxy-2-methylpropyl)butanamide] displayed an IC50 of 49.5 nM.
As to `CC[C@@H](O[C@@]12CC[C@@H](c3cc(-c4c(F)cccc4F)nnc31)C2(C)C)C(=O)O` [Compound 111, (2R)-2-[[(1R,8S)-5-(2,6-difluorophenyl)-11,11-dimethyl-3,4-diazatricyclo[6.2.1.02,7]undeca-2,4,6-trien-1-yl]oxy]butanoic acid], the IC50 is 14 nM.
In the case of `CN(C)C(=O)N1CCO[C@H]([C@@]23CC[C@@H](c4cc(-c5c(F)cccc5F)nnc42)C3(C)C)C1` [Compound 86, (R)-2-((5R,8R)-3-(2,6-difluorophenyl)-9,9-dimethyl-5,6,7,8-tetrahydro-5,8-methanocinnolin-8-yl)-N,N-dimethylmorpholine-4-carboxamide], the half-maximal inhibitory concentration (IC50) is 473 nM.
The molecule `CC1(C)[C@H]2CC[C@]1([C@H]1CN(C(=O)c3ccc(=O)[nH]n3)CCO1)c1nnc(-c3c(F)cccc3F)cc12` (stereo in doubt) [Compound 123, 3-[2-[5-(2,6-difluorophenyl)-11,11-dimethyl-3,4-diazatricyclo[6.2.1.02,7]undeca-2,4,6-trien-1-yl]morpholine-4-carbonyl]-1H-pyridazin-6-one] displayed an IC50 of 720 nM. Against the preceding molecule, the IC50 is about 1.5-fold higher.
For `CC1(C)[C@H]2CC[C@]1(O[C@H](C(N)=O)C1CC1)c1nnc(-c3c(F)cccc3F)cc12` [Compound 45], the IC50 stood at 132 nM.
`CC1(C)C2CCC1(C1CCCN(C(=O)c3cnoc3)C1)c1nnc(-c3c(F)cccc3F)cc12` (stereo not drawn) [Compound 160, [3-[5-(2,6-difluorophenyl)-11,11-dimethyl-3,4-diazatricyclo[6.2.1.02,7]undeca-2,4,6-trien-1-yl]-1-piperidyl]-isoxazol-4-yl-methanone] registered an IC50 of 200 nM.
The molecule `CC1(C)[C@H]2CC[C@]1([C@@H]1CN(CC(F)F)CCO1)c1nnc(-c3c(F)cccc3F)cc12` [Compound 83, (R)-4-(2,2-difluoroethyl)-2-((5R,8R)-3-(2,6-difluorophenyl)-9,9-dimethyl-5,6,7,8-tetrahydro-5,8-methanocinnolin-8-yl)morpholine] registered an IC50 of 356 nM.
`CC1(C)[C@H]2CC[C@]1([C@@H]1CN(C3=NC(CO)CO3)CCO1)c1nnc(-c3c(F)cccc3F)cc12` (stereo in doubt) [Compound 140, [2-[2-[5-(2,6-difluorophenyl)-11,11-dimethyl-3,4-diazatricyclo[6.2.1.02,7]undeca-2,4,6-trien-1-yl]morpholin-4-yl]-4,5-dihydrooxazol-4-yl]methanol] came in with an IC50 of 7.6 nM.
In turn, `CC[C@H](O[C@@]12CC[C@@H](c3cc(-c4c(F)cccc4F)nnc31)C2(C)C)c1nnc(C)o1` [Compound 21, 2-((S)-1-(((5S,8R)-3-(2,6-difluorophenyl)-9,9-dimethyl-5,6,7,8-tetrahydro-5,8-methanocinnolin-8-yl)oxy)propyl)-5-methyl-1,3,4-oxadiazole] yielded an IC50 of 51 nM.
`CC1(C)[C@H]2CC[C@]1([C@H]1CCCN(C(=O)c3cocn3)C1)c1nnc(-c3c(F)cccc3F)cc12` [Compound 122, [3-[5-(2,6-difluorophenyl)-11,11-dimethyl-3,4-diazatricyclo[6.2.1.02,7]undeca-2,4,6-trien-1-yl]-1-piperidyl]-oxazol-4-yl-methanone]: the IC50 turned out to be 21 nM. This IC50 is about 2.4-fold lower than that of the molecule before.
The molecule `CC[C@@H](O[C@@]12CC[C@@H](c3cc(-c4c(F)cccc4F)nnc31)C2(C)C)C(=O)NCC1(O)COC1` [Compound 57, (R)-2-(((5S,8R)-3-(2,6-difluorophenyl)-9,9-dimethyl-5,6,7,8-tetrahydro-5,8-methanocinnolin-8-yl)oxy)-N-((3-hydroxyoxetan-3-yl)methyl)butanamide] yielded an IC50 of 44.5 nM.
`CC1(C)[C@H]2CC[C@]1([C@H]1CN(c3ccccn3)CCO1)c1nnc(-c3c(F)cccc3F)cc12` [Compound 82, (S)-2-((5R,8R)-3-(2,6-difluorophenyl)-9,9-dimethyl-5,6,7,8-tetrahydro-5,8-methanocinnolin-8-yl)-4-(pyridin-2-yl)morpholine]: the IC50 was 16.7 nM.
`Cc1noc(N2CCO[C@@H]([C@@]34CC[C@@H](c5cc(-c6c(F)cccc6F)nnc53)C4(C)C)C2)n1` [Compound 91, (S)-2-((5R,8R)-3-(2,6-difluorophenyl)-9,9-dimethyl-5,6,7,8-tetrahydro-5,8-methanocinnolin-8-yl)-4-(3-methyl-1,2,4-oxadiazol-5-yl)morpholine] gave an IC50 of 101 nM.
In turn, `Cc1n[nH]c(C(=O)N2CCO[C@@H]([C@@]34CC[C@@H](c5cc(-c6c(F)cccc6F)nnc53)C4(C)C)C2)n1` [Compound 117, [2-[5-(2,6-difluorophenyl)-11,11-dimethyl-3,4-diazatricyclo[6.2.1.02,7]undeca-2,4,6-trien-1-yl]morpholin-4-yl]-(3-methyl-1H-1,2,4-triazol-5-yl)methanone] displayed an IC50 of 13 nM.
Turning to `CC1(C)[C@H]2CC[C@]1([C@H]1CCCN(C(=O)c3cc[nH]n3)C1)c1nnc(-c3c(F)cccc3F)cc12` [Compound 135, [3-[5-(2,6-difluorophenyl)-11,11-dimethyl-3,4-diazatricyclo[6.2.1.02,7]undeca-2,4,6-trien-1-yl]-1-piperidyl]-(1H-pyrazol-3-yl)methanone], the IC50 was determined as 6.7 nM. Compared with the last molecule, the IC50 is about 1.9-fold lower.
Turning to `CC1(C)[C@H]2CC[C@]1(Oc1cccnc1)c1nnc(-c3c(F)cccc3F)cc12` [Compound 27, (5S,8R)-3-(2,6-difluorophenyl)-9,9-dimethyl-8-(pyridin-3-yloxy)-5,6,7,8-tetrahydro-5,8-methanocinnoline], the IC50 was determined as 67 nM.
For the molecule `CC1(C)[C@H]2CC[C@]1([C@H]1CCCN(c3cnccn3)C1)c1nnc(-c3c(F)cccc3F)cc12` [Compound 165, 5-(2,6-difluorophenyl)-11,11-dimethyl-1-(1-pyrazin-2-yl-3-piperidyl)-3,4-diazatricyclo[6.2.1.02,7]undeca-2,4,6-triene], the IC50 was found to be 24 nM.
